# In PubChem BioAssay (NCI):
#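 Results reflect a 48-hour exposure of cells in 96-well plates to compound at five concentrations. At the GI50, growth is halved. TGI marks complete inhibition of growth.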
# How the values were obtained:
# Assay in all cases: NCI-60 cell line screen, 48 h
# [1] = tested on: 786-0 renal
# [2] = tested on: HCT-15 colon
# [3] = tested on: IGROV1 ovarian
# [4] = tested on: M14 melanoma
# [5] = tested on: OVCAR-5 ovarian
# [6] = tested on: RPMI-8226 leukemia
# [7] = tested on: SK-OV-3 ovarian
# [8] = tested on: SNB-75 CNS
# [9] = tested on: SR leukemia
# [10] = tested on: CCRF-CEM leukemia
Compound,TGI [1] [µM],TGI [2] [µM],TGI [3] [µM],TGI [4] [µM],TGI [5] [µM],TGI [6] [µM],TGI [7] [µM],TGI [8] [µM],TGI [9] [µM],TGI [10] [µM],GI50 [1] [µM],GI50 [10] [µM],GI50 [2] [µM],GI50 [3] [µM],GI50 [4] [µM],GI50 [5] [µM],GI50 [7] [µM],GI50 [8] [µM],GI50 [9] [µM],GI50 [6] [µM]
O=C(COc1ccccc1Cl)N1N=C(c2ccc(Cl)cc2)CC1(O)c1ccccc1 (configuration not stated),> 100,> 100,> 100,> 100,> 100,> 100,> 100,> 100,> 100,–,–,–,–,–,–,–,–,–,–,–
C[N+](C)(C)CCC(=O)CC[N+](C)(C)C,46.5,42.9,> 100,34.2,–,21.6,> 100,73.3,–,7.42,–,–,–,–,–,–,–,–,–,–
CC1=C([Se]CC(OC(=O)CC[Se]c2ccccc2)C(=O)NC(C)(C)C)C(=O)c2ccccc2C1=O (configuration not stated),3.23,5.86,2.94,3.21,3.18,–,2.81,2.82,3.37,4.1,1.83,0.628,2.47,1.53,1.67,1.75,1.45,1.47,0.938,–
c1ccc(C2ONC3=NCCN32)cc1 (configuration not stated),68,> 100,> 100,> 100,> 100,–,> 100,> 100,–,53.4,13.3,21.6,16.9,31.2,> 100,67.9,37,53.4,–,–
CCSCCCSCCSCC,> 100,> 100,> 100,> 100,> 100,–,> 100,> 100,–,> 100,–,–,–,–,–,–,–,–,–,–
COc1ccc2nccc(C3=CCC4CCN(C(=O)c5ccccc5)C3C4)c2c1 (configuration not stated),> 100,> 100,> 100,> 100,–,> 100,> 100,> 100,–,> 100,–,–,–,–,–,–,–,–,–,–
CCCN1C(=O)NC(=O)C(CC)(N2C(=O)c3c(F)c(F)c(F)c(F)c3C2=O)C1=O (configuration not stated),7.75,6.82,3.67,6.37,4.11,3.14,13.2,4.52,–,3.24,2.66,1.1,1.85,1.58,2.2,2.04,3.96,1.81,–,0.596
COc1cccc(-c2nc3cc(NC(=O)c4ccc(Cl)c(C#N)c4)ccc3o2)c1,3.33,> 100,> 100,–,> 100,–,5.56,7.15,> 100,> 100,1.74,> 100,> 100,7.55,–,3.05,2.57,2.48,35.1,–
O=C(N/N=C/c1ccccc1O)N/N=C/c1ccccc1O,> 100,> 100,> 100,> 100,> 100,> 100,> 100,> 100,–,> 100,–,–,–,–,–,–,–,–,–,–
COC(=O)c1sc(C(=O)OC)c2c1CS(=O)C2,> 100,> 100,> 100,> 100,> 100,> 100,> 100,> 100,–,> 100,–,–,–,–,–,–,–,–,–,–
CCc1c(C#N)c(=O)[nH]c(=O)n1CCN1CCN(C(=O)NCCCCCCNC(=O)N2CCN(CCn3c(CC)c(C#N)c(=O)[nH]c3=O)CC2)CC1,> 100,> 100,> 100,> 100,–,> 100,> 100,–,–,> 100,–,–,–,–,–,–,–,–,–,–
Cc1cc2c(C)nn(Cc3ccccc3)c2c(C(=O)O)c1C,> 100,> 100,> 100,–,> 100,> 100,> 100,–,> 100,> 100,–,–,–,–,–,–,–,–,–,–
CCOC(=O)NC(=O)c1cn(CCN2CCN(C(=O)NCCCCCCNC(=O)N3CCN(CCn4cc(C(=O)NC(=O)OCC)c(=O)[nH]c4=O)CC3)CC2)c(=O)[nH]c1=O,> 100,> 100,> 100,> 100,> 100,> 100,> 100,> 100,> 100,–,–,–,–,–,–,–,–,–,–,–
O=C1Nc2ccccc2C1(O)C/C(=N/O)c1ccc2ccccc2c1 (configuration not stated),> 100,> 100,–,> 100,> 100,> 100,> 100,> 100,–,> 100,–,–,–,–,–,–,–,–,–,–
CC[O-].CC[O-].O=C([CH-]C(=O)c1ccccc1)CCCCCCCCC(=O)[CH-]C(=O)c1ccccc1.[Ti+4],> 100,> 100,> 100,> 100,> 100,> 100,> 100,> 100,–,> 100,> 100,41.8,> 100,> 100,> 100,> 100,> 100,> 100,–,> 100
CCc1cccc(C)c1NS(=O)(=O)c1ccccc1,> 100,> 100,> 100,> 100,> 100,> 100,> 100,> 100,–,> 100,–,–,–,–,–,–,–,–,–,–
CCC1(O)C(=O)OCc2c1cc1n(c2=O)Cc2cc3ccccc3nc2-1 (configuration not stated),0.203,17.1,5.96,0.0271,1.25,1.89,7.11,0.19,–,–,–,–,–,–,–,–,–,–,–,–
CCOC(=O)Cc1nc2ccc3c(c2[nH]c1=O)C(=O)c1ccccc1C3=O,> 100,> 100,> 100,> 100,> 100,> 100,> 100,> 100,–,> 100,–,–,–,–,–,–,–,–,–,–
O=C1C=CC(=O)c2c1ccc1c3ccccc3n(Cc3ccc([N+](=O)[O-])cc3)c21,> 100,> 100,> 100,> 100,–,–,> 100,> 100,37.3,40.8,–,–,–,–,–,–,–,–,–,–
CC(=O)c1c(O)c(C)c(O)c(Cc2c(O)c3c(c(C(=O)/C=C/c4ccccc4)c2O)OC(C)(C)C=C3)c1O,18.7,14.3,16.3,18.4,22.4,> 100,15.1,7.93,–,> 100,–,–,–,–,–,–,–,–,–,–
